Test system: Mouse intestinal CCK-producing cell line STC-1
Test: Confirmation test of CCK secretion-stimulating activity (CCK in supernatant, enzyme immunoassay)
Format: cell-based
Set-up: key to CCK secretion-promoting activity Significant difference from vehicle Group 3 / CCK secretion-promoting activity Significant difference from vehicle Group 4 / CCK secretion-promoting activity Significant difference from vehicle Group 1 / CCK secretion-promoting activity Significant difference from vehicle Group 5: *: A significant difference (P < 0.05) was found; —: No significant difference was found
Settings: for CCK secretion-promoting activity Significant difference from vehicle Group 4: experimental group 4; for CCK secretion-promoting activity Significant difference from vehicle Group 3: experimental group 3; for CCK secretion-promoting activity Significant difference from vehicle Group 1: experimental group 1
Method: As a condition for maximizing the secretion amount of CCK in a cell test system, 70 mM KCl (positive control) causing hormone release by depolarization was prepared.
Since the number of materials that can be tested at once is restricted, the test materials were divided into five groups as shown in Table 1. In order to solve the discontinuity between experimental groups, every group included trans,trans-2,4-decadienal. Each test material was tested three times, and the average value of the results was calculated.
The test materials were each dissolved in ethanol, and each solution was diluted with Hepes buffer (140 mM NaCl, 4.5 mM KCl, 20 mM Hepes, 1.2 mM CaCl2, 1.2 mM MgCl2, and 10 mM D-glucose, pH 7.4) to give a 0.1 vol % ethanol solution, which was used as the evaluation solution.
Mouse intestinal CCK-producing cell line STC-1 was cultured in a 48-well plate for two to three days until subconfluent in a Dulbecco's modified Eagle's medium containing 10% bovine fetal serum at 37° C. in the presence of 5% CO2. After the wells were washed with Hepes buffer, 100 μL of the evaluation solution containing 100 μM of a test material was added to a well, followed by incubation at 37° C. for 60 minutes. The supernatant was collected and was centrifuged (800×g, 5 min, 4° C.) to precipitate the exfoliated cells. The resulting supernatant (80 μL) was collected and was cryopreserved. The concentration of CCK in the supernatant was measured with a commercially available enzyme immunoassay kit (manufactured by Phoenix Pharmaceuticals, Inc.).
In order to investigate the change in the secretion amount of CCK by addition of a test material to the cells in a general condition, a value obtained by subtracting the measured value of the vehicle from the measured value of a sample was used as the true value, and the score of the CCK secretion-stimulating activity was determined by dividing the true value by the value of 70 mM KCl as a control. The variance was analyzed for each experimental group. The difference in variance between an experimental group and the vehicle was examined for determining whether there was a significant difference (P<0.05). […]

[1] = Table 2B, 100 μM test material, 60 minutes, STC-1, (sample minus vehicle) divided by value of 70 mM KCl control
[2] = Table 2A, 100 μM test material, 60 minutes, STC-1, (sample minus vehicle) divided by value of 70 mM KCl control

C=CCO [compound 15, 2-propen-1-ol]
CCK secretion-promoting activity Score [1]: 0.557 | CCK secretion-promoting activity Significant difference from vehicle Group 4 (Table 2B, 100 μM): —

CCCCCC/C=C/C=O [Example 9, trans-2-nonenal]
CCK secretion-promoting activity Score [2]: 0.491 | CCK secretion-promoting activity Significant difference from vehicle Group 3 (Table 2A, 100 μM): —

CCCCCCCCCC(=O)O [compound 25, decanoic acid]
CCK secretion-promoting activity Score [1]: −0.207

CCCCCCC/C=C/C=O [compound 8, trans-2-decenal]
CCK secretion-promoting activity Score [1]: 0.046

CCCC/C=C/C=C/C=O [Example 3, trans,trans-2,4-nonadienal]
CCK secretion-promoting activity Score [2]: 0.975 | CCK secretion-promoting activity Significant difference from vehicle Group 1 (Table 2A, 100 μM): * (A significant difference (P < 0.05) was found)

CCCCCCCC(=O)O [compound 24, n-octanoic acid]
CCK secretion-promoting activity Score [1]: −0.140

CCCCCCCCCCCC=O [compound 6, dodecanal]
CCK secretion-promoting activity Score [1]: −0.093

CCCCCCCCCCCCC(=O)O [compound 27, n-tridecanoic acid]
CCK secretion-promoting activity Score [1]: −0.234

CCCCCCCC/C=C/C=O [compound 9, trans-2-undecenal]
CCK secretion-promoting activity Score [1]: −0.137 | CCK secretion-promoting activity Significant difference from vehicle Group 3 (Table 2B, 100 μM): —

CCCCCCCCCCC=O [compound 5, undecanal]
CCK secretion-promoting activity Score [1]: 0.189

CCCCC/C=C/C=C/C=O [Example 4, trans,trans-2,4-decadienal]
CCK secretion-promoting activity Score [2]: 1.088 | CCK secretion-promoting activity Significant difference from vehicle Group 1 (Table 2A, 100 μM): * (A significant difference (P < 0.05) was found) | CCK secretion-promoting activity Significant difference from vehicle Group 3 (Table 2A, 100 μM): * (A significant difference (P < 0.05) was found) | CCK secretion-promoting activity Significant difference from vehicle Group 4 (Table 2A, 100 μM): * (A significant difference (P < 0.05) was found) | CCK secretion-promoting activity Significant difference from vehicle (Table 3, single ingredient (100 μM)): * (A significant difference (P < 0.05) was found) | CCK secretion-promoting activity Score (Table 3, single ingredient (100 μM) or control, relative to 70 mM KCl): 1.088 | CCK secretion-stimulating activity (in words) (single test material, STC-1): the highest

trans,trans-1,9-decadiene [compound 30]
CCK secretion-promoting activity Score [1]: −0.211 | CCK secretion-promoting activity Significant difference from vehicle Group 5 (Table 2B, experimental group 5, 100 μM): —

CCCCCCCCCCCCC=O [compound 7, tridecanal]
CCK secretion-promoting activity Score [1]: 0.049

CCCCC/C=C/C=O [Example 8, trans-2-octenal]
CCK secretion-promoting activity Score [2]: 0.698 | CCK secretion-promoting activity Significant difference from vehicle Group 4 (Table 2A, 100 μM): * (A significant difference (P < 0.05) was found)

CC/C=C\CCCCCC=O [compound 13, cis-7-decenal]
CCK secretion-promoting activity Score [1]: 0.274

CCCCCCCCC=O [compound 3, nonanal]
CCK secretion-promoting activity Score [1]: −0.003 | CCK secretion-promoting activity Significant difference from vehicle Group 1 (Table 2B, 100 μM): —

CCCC=O.CCCC=O [Comparative Example 1, butanal (butyraldehyde)]
CCK secretion-promoting activity Score [1]: 0.017 | CCK secretion-promoting activity Significant difference from vehicle Group 1 (Table 2B, 100 μM): —

CCCCC/C=C\CCCO [compound 17, cis-4-decen-1-ol]
CCK secretion-promoting activity Score [1]: −0.171 | CCK secretion-promoting activity Significant difference from vehicle Group 4 (Table 2B, 100 μM): —

CCCCCCC/C=C/C=C/C=O [Example 5, trans,trans-2,4-dodecadienal]
CCK secretion-promoting activity Score [2]: 0.720

C/C=C/C=O.C/C=C/C=O [Example 6, trans-2-butenal (crotonaldehyde)]
CCK secretion-promoting activity Score [2]: 0.644 | CCK secretion-promoting activity Significant difference from vehicle Group 1 (Table 2A, 100 μM): * (A significant difference (P < 0.05) was found)

CCCCCCCCCC=O [compound 4, decanal]
CCK secretion-promoting activity Score [1]: 0.042

CCCCC/C=C/CO [compound 16, trans-2-octen-1-ol]
CCK secretion-promoting activity Score [1]: 0.321 | CCK secretion-promoting activity Significant difference from vehicle Group 4 (Table 2B, 100 μM): —

Reference: patent US9554990B2, “Cholecystokinin secretion-promoting composition” (J-OIL MILLS, INC., priority 2012, dated 2017)
